Source: PubChem BioAssay (NCI)
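96-well plates; 48 h exposure; 5 concentrations. Endpoints by linear interpolation between flanking doses. Not reached: highest tested concentration assigned. Abbreviation: GI50, concentration required for 50% inhibition of growth. At the TGI there is no net growth.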

Tests used:
Test in all cases: growth of human tumour cells (NCI), 48 h
A549 NSCLC = tested on: A549 NSCLC
CCRF-CEM leukemia = tested on: CCRF-CEM leukemia
COLO 205 colon = tested on: COLO 205 colon
HCT-15 colon = tested on: HCT-15 colon
KM12 colon = tested on: KM12 colon
LOX IMVI melanoma = tested on: LOX IMVI melanoma
NCI-H23 lung = tested on: NCI-H23 lung
OVCAR-8 ovarian = tested on: OVCAR-8 ovarian
UACC-257 melanoma = tested on: UACC-257 melanoma
KM20L2 colon = tested on: KM20L2 colon

SMILES	GI50 (A549 NSCLC) [µM]	TGI (A549 NSCLC) [µM]	GI50 (CCRF-CEM leukemia) [µM]	TGI (CCRF-CEM leukemia) [µM]	GI50 (COLO 205 colon) [µM]	TGI (COLO 205 colon) [µM]	GI50 (HCT-15 colon) [µM]	TGI (HCT-15 colon) [µM]	GI50 (KM12 colon) [µM]	TGI (KM12 colon) [µM]	GI50 (LOX IMVI melanoma) [µM]	TGI (LOX IMVI melanoma) [µM]	GI50 (NCI-H23 lung) [µM]	TGI (NCI-H23 lung) [µM]	GI50 (OVCAR-8 ovarian) [µM]	TGI (OVCAR-8 ovarian) [µM]	GI50 (UACC-257 melanoma) [µM]	TGI (UACC-257 melanoma) [µM]	TGI (KM20L2 colon) [µM]
Cc1csc(/C=N/NC(=O)c2nnn(-c3ccnc4c(C(F)(F)F)cccc34)c2C)c1	36.6	> 100	56.8	> 100	34.2	> 100	36.9	> 100	> 100	> 100	72.2	> 100	48.1	> 100	74.1	> 100	14	51.4	
C=CCC1C(=O)C(C(=O)OC)N2CCc3c([nH]c4ccccc34)C12 (stereo unspecified)		> 100		> 100		> 100		> 100		> 100				> 100		> 100			> 100
CCCCN(CCCC)c1ccc(C(=N)c2ccc(N(C)C)cc2)cc1	0.7	1.97	0.544	3.24	0.455	1.65	0.665	2.2	0.516	1.75	0.536	2.02	0.278	0.981	0.591	1.78	0.562	1.35	
CC[C@@]1(OC(=O)CN)C(=O)OCc2c1cc1n(c2=O)Cc2cc3cc4c(cc3nc2-1)OCO4	< 0.01	0.309	< 0.01		0.127	1.53	0.0291	> 100	0.0346	0.296	< 0.01	0.119	< 0.01	< 0.0128	< 0.01	0.13	< 0.0234	0.417	
Cc1cc(Cc2cc(C)c(O)c(C)c2)cc(C)c1O	4.32	38.2	4.14	> 100	32.9	> 100	3.49	> 100	3.93	15.7	6.64	33.3	11.3	74	7.59	> 100	6.94	62.2	
CCCN(CCCN)/[N+]([O-])=N\O		> 100		> 100		> 100		> 100		> 100				> 100		> 100		> 100	2.74
CC(=O)Nc1ccc(-c2c3nc(c(-c4cc5ccccc5[n+](C)c4)c4ccc([nH]4)c(-c4ccc(NC(C)=O)cc4)c4nc(c(-c5cc6ccccc6[n+](C)c5)c5ccc2[nH]5)C=C4)C=C3)cc1	8.6	35.4	0.721	> 50	12.9	26.7	> 50	> 50	15.1	> 50	12.5	> 50	17.3	> 50	15.7	> 50	11.7	47.6	
